“And” between values parts separate entries of the source, which are not always exact repeats. Equal values may be shown once. Inconclusive results and toxic doses are left out. No stated cut-off is given here; in the data, active means T/C of 150% or more; inactive means T/C below 125%.
System: L1210 leukemia ip in BDF1 mice, survival T/C
Assay: NCI In Vivo Anticancer Drug Screen. Data for tumor model L1210 Leukemia (intraperitoneal) in B6D2F1 (BDF1) mice
Details: higher = longer survival
Method in brief: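 Transplantable tumor model; survival measured in treated vs vehicle control mice. Value = treated/control.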

[1] = endpoint: mean survival time, dose: 100.0 mg/kg/injection, schedule: Q01DX009 (ip), vehicle: Klucel (hydroxypropylcellulose) (HPC)
[2] = endpoint: mean survival time, dose: 100.0 mg/kg/injection, schedule: Q04DX003 (ip), vehicle: Klucel (hydroxypropylcellulose) (HPC)
[3] = endpoint: mean survival time, dose: 100.0 mg/kg/injection, schedule: Q04DX003 (ip), vehicle: saline
[4] = endpoint: mean survival time, dose: 200.0 mg/kg/injection, schedule: Q01DX009 (ip), vehicle: Klucel (hydroxypropylcellulose) (HPC)
[5] = endpoint: mean survival time, dose: 200.0 mg/kg/injection, schedule: Q04DX003 (ip), vehicle: Klucel (hydroxypropylcellulose) (HPC)
[6] = endpoint: mean survival time, dose: 200.0 mg/kg/injection, schedule: Q04DX003 (ip), vehicle: saline
[7] = endpoint: mean survival time, dose: 400.0 mg/kg/injection, schedule: Q04DX003 (ip), vehicle: saline
[8] = endpoint: mean survival time, dose: 25.0 mg/kg/injection, schedule: Q04DX002 (ip), vehicle: Klucel (hydroxypropylcellulose) (HPC)
[9] = endpoint: mean survival time, dose: 50.0 mg/kg/injection, schedule: Q04DX002 (ip), vehicle: Klucel (hydroxypropylcellulose) (HPC)
[10] = endpoint: mean survival time, dose: 100.0 mg/kg/injection, schedule: Q01DX001 (ip), vehicle: acetone
[11] = endpoint: mean survival time, dose: 200.0 mg/kg/injection, schedule: Q01DX001 (ip), vehicle: acetone
[12] = endpoint: mean survival time, dose: 400.0 mg/kg/injection, schedule: Q01DX001 (ip), vehicle: acetone
[13] = endpoint: mean survival time, dose: 400.0 mg/kg/injection, schedule: Q01DX009 (ip), vehicle: Klucel (hydroxypropylcellulose) (HPC)
[14] = endpoint: mean survival time, dose: 25.0 mg/kg/injection, schedule: Q01DX009 (ip), vehicle: saline
[15] = endpoint: mean survival time, dose: 50.0 mg/kg/injection, schedule: Q01DX009 (ip), vehicle: saline
[16] = endpoint: mean survival time, dose: 100.0 mg/kg/injection, schedule: Q01DX009 (ip), vehicle: saline
[17] = endpoint: mean survival time, dose: 50.0 mg/kg/injection, schedule: Q01DX001 (ip), vehicle: carboxymethylcellulose (CMC)
[18] = endpoint: mean survival time, dose: 100.0 mg/kg/injection, schedule: Q01DX001 (ip), vehicle: carboxymethylcellulose (CMC)
[19] = endpoint: mean survival time, dose: 100.0 mg/kg/injection, schedule: Q04DX002 (ip), vehicle: saline with Tween-80
[20] = endpoint: mean survival time, dose: 200.0 mg/kg/injection, schedule: Q04DX002 (ip), vehicle: saline with Tween-80
[21] = endpoint: mean survival time, dose: 400.0 mg/kg/injection, schedule: Q04DX002 (ip), vehicle: saline with Tween-80

Measured: T/C

Cc1cc(=O)[nH][nH]c1=O
inactive: endpoint: mean survival time, dose: 50.0 mg/kg/injection, schedule: Q01DX009 (ip), vehicle: Klucel (hydroxypropylcellulose) (HPC) 97 % of control | endpoint: mean survival time, dose: 50.0 mg/kg/injection, schedule: Q04DX003 (ip), vehicle: Klucel (hydroxypropylcellulose) (HPC) 106 % of control | endpoint: mean survival time, dose: 100.0 mg/kg/injection, schedule: Q01DX001 (ip), vehicle: saline with Tween-80 95 % of control | [1] 105 % of control | [2] 103 % of control | [3] 94 % of control | endpoint: mean survival time, dose: 200.0 mg/kg/injection, schedule: Q01DX001 (ip), vehicle: saline with Tween-80 92 % of control | [4] 101 % of control | [5] 101 % of control | [6] 97 % of control | endpoint: mean survival time, dose: 400.0 mg/kg/injection, schedule: Q01DX001 (ip), vehicle: saline with Tween-80 100 % of control | [7] 97 % of control

Cc1c2c(nn1-c1ccccn1)C(=O)C=C(Nc1ccccc1)C2=O
inactive: endpoint: mean survival time, dose: 12.5 mg/kg/injection, schedule: Q04DX002 (ip), vehicle: Klucel (hydroxypropylcellulose) (HPC) 92 % of control | [8] 96 % of control | [9] 92 % of control | endpoint: mean survival time, dose: 400.0 mg/kg/injection, schedule: Q04DX002 (ip), vehicle: Klucel (hydroxypropylcellulose) (HPC) 90 % of control

COc1ccc(C2CCCN(C)O2)cc1 (stereo unspecified)
inactive: [10] 102 % of control | [11] 91 % of control | [12] 98 % of control

COc1c(NC(=O)c2ccc(C(=O)Nc3cccc([N+](=O)[O-])c3OC)cc2)cccc1[N+](=O)[O-]
inactive: [1] 97 % of control | [4] 100 % of control | [13] 97 % of control

O=C1Cc2cccc(=O)c(O)c2C(=O)O1
inactive: [14] 97 % of control and 90 % of control | [15] 97 % of control and 92 % of control | [16] 96 % of control and 89 % of control | [3] 111 % of control and 100 % of control | [6] 97 % of control | [7] 89 % of control

O=C(OC1COC(Br)C(OC(=O)c2ccccc2)C1OC(=O)c1ccccc1)c1ccccc1 (stereo unspecified)
inactive: [17] 90 % of control | [18] 95 % of control and 97 % of control | [1] 97 % of control | [2] 106 % of control | endpoint: mean survival time, dose: 200.0 mg/kg/injection, schedule: Q01DX001 (ip), vehicle: carboxymethylcellulose (CMC) 93 % of control and 94 % of control | [4] 103 % of control | [5] 104 % of control | endpoint: mean survival time, dose: 400.0 mg/kg/injection, schedule: Q01DX001 (ip), vehicle: carboxymethylcellulose (CMC) 98 % of control and 94 % of control | [13] 98 % of control | endpoint: mean survival time, dose: 400.0 mg/kg/injection, schedule: Q04DX003 (ip), vehicle: Klucel (hydroxypropylcellulose) (HPC) 98 % of control

Cc1c(Cl)cccc1NC(=O)N1CCCC(C)C1 (stereo unspecified)
inactive: endpoint: mean survival time, dose: 100.0 mg/kg/injection, schedule: Q01DX009 (ip), vehicle: saline with Tween-80 94 % of control and 90 % of control | [19] 96 % of control and 89 % of control | endpoint: mean survival time, dose: 100.0 mg/kg/injection, schedule: Q04DX003 (ip), vehicle: saline with Tween-80 96 % of control | endpoint: mean survival time, dose: 200.0 mg/kg/injection, schedule: Q01DX009 (ip), vehicle: saline with Tween-80 90 % of control | [20] 86 % of control and 89 % of control | endpoint: mean survival time, dose: 200.0 mg/kg/injection, schedule: Q04DX003 (ip), vehicle: saline with Tween-80 102 % of control | endpoint: mean survival time, dose: 400.0 mg/kg/injection, schedule: Q01DX009 (ip), vehicle: saline with Tween-80 93 % of control and 95 % of control | [21] 93 % of control and 89 % of control | endpoint: mean survival time, dose: 400.0 mg/kg/injection, schedule: Q04DX003 (ip), vehicle: saline with Tween-80 97 % of control

CCCCOC(=O)COc1cc(Cl)c(Cl)cc1Cl
inactive: [19] 93 % of control | [20] 104 % of control

CN(C)CCSS(=O)(=O)O
inactive: endpoint: mean survival time, dose: 100.0 mg/kg/injection, schedule: Q01DX001 (ip), vehicle: saline 93 % of control | endpoint: mean survival time, dose: 200.0 mg/kg/injection, schedule: Q01DX001 (ip), vehicle: saline 96 % of control | endpoint: mean survival time, dose: 400.0 mg/kg/injection, schedule: Q01DX001 (ip), vehicle: saline 102 % of control

CCN1Cc2ccc(O)cc2C1
inactive: [14] 103 % of control | endpoint: mean survival time, dose: 25.0 mg/kg/injection, schedule: Q04DX003 (ip), vehicle: saline 107 % of control | [15] 95 % of control | endpoint: mean survival time, dose: 50.0 mg/kg/injection, schedule: Q04DX003 (ip), vehicle: saline 107 % of control | [16] 96 % of control and 97 % of control | [3] 100 % of control and 102 % of control

O=C(OCc1ccccc1CN1CCOCC1)c1cccc(Br)c1
inactive: [8] 93 % of control | [9] 95 % of control and 108 % of control | endpoint: mean survival time, dose: 100.0 mg/kg/injection, schedule: Q04DX002 (ip), vehicle: Klucel (hydroxypropylcellulose) (HPC) 108 % of control | endpoint: mean survival time, dose: 200.0 mg/kg/injection, schedule: Q04DX002 (ip), vehicle: Klucel (hydroxypropylcellulose) (HPC) 108 % of control and 92 % of control

CC[C@H]1CN2CCc3cc(OC)c(OC)cc3[C@@H]2C[C@@H]1C[C@H]1NCCc2c1[nH]c1ccc(O)cc21
inactive: endpoint: mean survival time, dose: 0.25 mg/kg/injection, schedule: Q01DX006 (ip), vehicle: saline 109 % of control | endpoint: mean survival time, dose: 0.5 mg/kg/injection, schedule: Q01DX006 (ip), vehicle: saline 117 % of control | endpoint: mean survival time, dose: 2.0 mg/kg/injection, schedule: Q01DX005 (ip), vehicle: saline 121 % of control | endpoint: mean survival time, dose: 4.0 mg/kg/injection, schedule: Q01DX005 (ip), vehicle: saline 108 % of control | endpoint: mean survival time, dose: 4.0 mg/kg/injection, schedule: Q04DX003 (ip), vehicle: saline 114 % of control | endpoint: mean survival time, dose: 125.0 micrograms/kg/injection, schedule: Q01DX009 (ip), vehicle: saline 108 % of control | endpoint: mean survival time, dose: 250.0 micrograms/kg/injection, schedule: Q01DX009 (ip), vehicle: saline 118 % of control | endpoint: mean survival time, dose: 500.0 micrograms/kg/injection, schedule: Q01DX009 (ip), vehicle: saline 120 % of control | endpoint: mean survival time, dose: 1000.0 micrograms/kg/injection, schedule: Q01DX009 (ip), vehicle: saline 109 % of control | endpoint: median survival time, dose: 1.0 mg/kg/injection, schedule: Q04DX003 (ip), vehicle: saline + alcohol 108 % of control | endpoint: median survival time, dose: 2.0 mg/kg/injection, schedule: Q04DX003 (ip), vehicle: saline + alcohol 118 % of control

Ic1ccccc1C[N+]12CN3CN(CN(C3)C1)C2
inactive: endpoint: mean survival time, dose: 15.0 mg/kg/injection, schedule: Q01DX015 (ip), vehicle: carboxymethylcellulose (CMC) 101 % of control | endpoint: mean survival time, dose: 30.0 mg/kg/injection, schedule: Q01DX015 (ip), vehicle: carboxymethylcellulose (CMC) 92 % of control | endpoint: mean survival time, dose: 60.0 mg/kg/injection, schedule: Q01DX015 (ip), vehicle: carboxymethylcellulose (CMC) 92 % of control | [10] 101 % of control | endpoint: mean survival time, dose: 100.0 mg/kg/injection, schedule: Q01DX009 (ip), vehicle: acetone 96 % of control | endpoint: mean survival time, dose: 100.0 mg/kg/injection, schedule: Q04DX003 (ip), vehicle: acetone 100 % of control | endpoint: mean survival time, dose: 120.0 mg/kg/injection, schedule: Q01DX015 (ip), vehicle: carboxymethylcellulose (CMC) 103 % of control | [11] 101 % of control | endpoint: mean survival time, dose: 200.0 mg/kg/injection, schedule: Q01DX009 (ip), vehicle: acetone 94 % of control | endpoint: mean survival time, dose: 200.0 mg/kg/injection, schedule: Q04DX003 (ip), vehicle: acetone 100 % of control | [12] 94 % of control | endpoint: mean survival time, dose: 400.0 mg/kg/injection, schedule: Q04DX003 (ip), vehicle: acetone 93 % of control

CCC(CC)=NNS(=O)(=O)c1ccccc1
inactive: endpoint: mean survival time, dose: 75.0 mg/kg/injection, schedule: Q01DX001 (ip), vehicle: saline 100 % of control | endpoint: mean survival time, dose: 150.0 mg/kg/injection, schedule: Q01DX001 (ip), vehicle: saline 100 % of control | endpoint: mean survival time, dose: 300.0 mg/kg/injection, schedule: Q01DX001 (ip), vehicle: saline 102 % of control

NC(C(=O)O)C(N)(CC(=O)O)C(=O)O (stereo unspecified)
inactive: [19] 94 % of control | [20] 94 % of control | [21] 105 % of control

Nc1ncnc2cc(O)[nH]c12
inactive: [17] 107 % of control | [18] 104 % of control

CC(C)(C(=O)OCCOCCCl)c1cccc2ccccc12
inactive: [19] 113 % of control | [20] 111 % of control | [21] 95 % of control

— PubChem BioAssay AID248 (DTP/NCI, 2004)
